Reference: PubChem BioAssay (NCI)
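At the GI50, growth is halved. TGI marks complete inhibition of growth.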

Experiments:
Assay in all cases: NCI tumour cell line growth inhibition, 384-well format
[1] = test system: 786-0 renal
[2] = test system: A498 renal
[3] = test system: A549 NSCLC
[4] = test system: ACHN renal
[5] = test system: BT-549 breast
[6] = test system: CAKI-1 renal
[7] = test system: CCRF-CEM leukemia
[8] = test system: COLO 205 colon
[9] = test system: DU-145 prostate
[10] = test system: EKVX NSCLC
[11] = test system: HCC-2998 colon
[12] = test system: HCT-116 colon
[13] = test system: HCT-15 colon
[14] = test system: HL-60(TB) leukemia
[15] = test system: HOP-62 NSCLC
[16] = test system: HOP-92 NSCLC
[17] = test system: HS 578T breast
[18] = test system: HT29 colon
[19] = test system: IGROV1 ovarian
[20] = test system: KM12 colon
[21] = test system: LOX IMVI melanoma
[22] = test system: M14 melanoma
[23] = test system: MALME-3M melanoma
[24] = test system: MCF7 breast
[25] = test system: MDA-MB-231 breast
[26] = test system: MDA-MB-435 melanoma
[27] = test system: MDA-MB-468 breast
[28] = test system: MOLT-4 leukemia
[29] = test system: NCI-H226 lung
[30] = test system: NCI-H23 lung
[31] = test system: NCI-H322M lung
[32] = test system: NCI-H460 NSCLC
[33] = test system: NCI-H522 lung
[34] = test system: NCI/ADR-RES ovarian
[35] = test system: OVCAR-3 ovarian
[36] = test system: OVCAR-4 ovarian
[37] = test system: OVCAR-5 ovarian
[38] = test system: OVCAR-8 ovarian
[39] = test system: PC-3 prostate
[40] = test system: RPMI-8226 leukemia
[41] = test system: RXF 393 renal
[42] = test system: SF-268 CNS
[43] = test system: SF-295 CNS
[44] = test system: SF-539 CNS
[45] = test system: SK-MEL-28 melanoma
[46] = test system: SK-MEL-5 melanoma
[47] = test system: SK-OV-3 ovarian
[48] = test system: SN12C renal
[49] = test system: SNB-19 CNS
[50] = test system: SNB-75 CNS
[51] = test system: SR leukemia
[52] = test system: SW-620 colon
[53] = test system: T-47D breast
[54] = test system: TK-10 renal
[55] = test system: U251 glioblastoma
[56] = test system: UACC-257 melanoma
[57] = test system: UACC-62 melanoma
[58] = test system: UO-31 renal

**Q.** For `C=CC(=O)N1CCC([C@@H]2CCNc3c(C(N)=O)c(-c4ccc(Oc5ccccc5)cc4)nn32)CC1`, which GI50 [1] is on record?
**A.** 15.4 µM

**Q.** What about the TGI [1] of the same compound?
**A.** 37.7 µM

**Q.** And the GI50 [2]?
**A.** 15.1 µM

**Q.** And the TGI [2]?
**A.** > 56.3 µM

**Q.** What about the GI50 [3] of the same compound?
**A.** 16.2 µM

**Q.** And the TGI [3]?
**A.** > 52.4 µM

**Q.** What about the GI50 [4] of the same compound?
**A.** 9.75 µM

**Q.** What about the TGI [4] of the same compound?
**A.** 44.6 µM

**Q.** And the GI50 [5]?
**A.** 13.4 µM

**Q.** What about the TGI [5] of the same compound?
**A.** 26.4 µM

**Q.** What about the GI50 [6] of the same compound?
**A.** 14.7 µM

**Q.** And the TGI [6]?
**A.** 47.7 µM

**Q.** And the GI50 [7]?
**A.** 19.7 µM

**Q.** And the TGI [7]?
**A.** 35 µM

**Q.** What about the GI50 [8] of the same compound?
**A.** 21.7 µM

**Q.** And the TGI [8]?
**A.** 45.6 µM

**Q.** What about the GI50 [9] of the same compound?
**A.** 11.6 µM

**Q.** What about the TGI [9] of the same compound?
**A.** 30.6 µM

**Q.** What about the GI50 [10] of the same compound?
**A.** 6.77 µM

**Q.** What about the TGI [10] of the same compound?
**A.** 31.2 µM

**Q.** And the GI50 [11]?
**A.** 11.7 µM

**Q.** What about the TGI [11] of the same compound?
**A.** 24.2 µM

**Q.** And the GI50 [12]?
**A.** 17.6 µM

**Q.** What about the TGI [12] of the same compound?
**A.** 32.8 µM

**Q.** And the GI50 [13]?
**A.** 16.8 µM

**Q.** What about the TGI [13] of the same compound?
**A.** 32.1 µM

**Q.** And the GI50 [14]?
**A.** 17.1 µM

**Q.** What about the TGI [14] of the same compound?
**A.** 31.3 µM

**Q.** What about the GI50 [15] of the same compound?
**A.** 19.6 µM

**Q.** What about the TGI [15] of the same compound?
**A.** 49.6 µM

**Q.** What about the GI50 [16] of the same compound?
**A.** 14.6 µM

**Q.** What about the TGI [16] of the same compound?
**A.** 29.7 µM

**Q.** And the GI50 [17]?
**A.** 16 µM

**Q.** What about the TGI [17] of the same compound?
**A.** 30.8 µM

**Q.** What about the GI50 [18] of the same compound?
**A.** 17.8 µM

**Q.** What about the TGI [18] of the same compound?
**A.** 33.4 µM

**Q.** And the GI50 [19]?
**A.** 4.22 µM

**Q.** And the TGI [19]?
**A.** 16.9 µM

**Q.** And the GI50 [20]?
**A.** 42.5 µM

**Q.** What about the TGI [20] of the same compound?
**A.** > 100 µM

**Q.** What about the GI50 [21] of the same compound?
**A.** 14.9 µM

**Q.** What about the TGI [21] of the same compound?
**A.** 28.5 µM

**Q.** And the GI50 [22]?
**A.** 18 µM

**Q.** What about the TGI [22] of the same compound?
**A.** 36.8 µM

**Q.** And the GI50 [23]?
**A.** 15.3 µM

**Q.** What about the TGI [23] of the same compound?
**A.** 29.1 µM

**Q.** And the GI50 [24]?
**A.** 23.7 µM

**Q.** And the TGI [24]?
**A.** > 69 µM

**Q.** What about the GI50 [25] of the same compound?
**A.** 17.4 µM

**Q.** What about the TGI [25] of the same compound?
**A.** 33.6 µM

**Q.** And the GI50 [26]?
**A.** 23 µM

**Q.** And the TGI [26]?
**A.** 53.7 µM

**Q.** What about the GI50 [27] of the same compound?
**A.** 0.684 µM

**Q.** What about the TGI [27] of the same compound?
**A.** 4.09 µM

**Q.** What about the GI50 [28] of the same compound?
**A.** 14.3 µM

**Q.** What about the TGI [28] of the same compound?
**A.** 27.6 µM

**Q.** What about the GI50 [29] of the same compound?
**A.** 14.2 µM

**Q.** What about the TGI [29] of the same compound?
**A.** 32.3 µM

**Q.** And the GI50 [30]?
**A.** 16.8 µM

**Q.** And the TGI [30]?
**A.** 31.6 µM

**Q.** And the GI50 [31]?
**A.** 2.53 µM

**Q.** What about the TGI [31] of the same compound?
**A.** 15 µM

**Q.** What about the GI50 [32] of the same compound?
**A.** 25.2 µM

**Q.** And the TGI [32]?
**A.** > 61.8 µM

**Q.** What about the GI50 [33] of the same compound?
**A.** 3.46 µM

**Q.** And the TGI [33]?
**A.** 12.1 µM

**Q.** And the GI50 [34]?
**A.** 16.9 µM

**Q.** What about the TGI [34] of the same compound?
**A.** 36.5 µM

**Q.** And the GI50 [35]?
**A.** 9.13 µM

**Q.** And the TGI [35]?
**A.** 25.6 µM

**Q.** And the GI50 [36]?
**A.** 15.5 µM

**Q.** What about the TGI [36] of the same compound?
**A.** 45.9 µM

**Q.** And the GI50 [37]?
**A.** 48.2 µM

**Q.** What about the TGI [37] of the same compound?
**A.** > 100 µM

**Q.** What about the GI50 [38] of the same compound?
**A.** 17.2 µM

**Q.** And the TGI [38]?
**A.** 36.1 µM

**Q.** And the GI50 [39]?
**A.** 31.6 µM

**Q.** And the TGI [39]?
**A.** > 86 µM

**Q.** What about the GI50 [40] of the same compound?
**A.** 16.3 µM

**Q.** What about the TGI [40] of the same compound?
**A.** 30.7 µM

**Q.** And the GI50 [41]?
**A.** 7.6 µM

**Q.** And the TGI [41]?
**A.** 20.2 µM

**Q.** What about the GI50 [42] of the same compound?
**A.** 15.4 µM

**Q.** And the TGI [42]?
**A.** 40.6 µM

**Q.** And the GI50 [43]?
**A.** 28.5 µM

**Q.** What about the TGI [43] of the same compound?
**A.** > 80.2 µM

**Q.** What about the GI50 [44] of the same compound?
**A.** 17.8 µM

**Q.** And the TGI [44]?
**A.** 35.7 µM

**Q.** And the GI50 [45]?
**A.** 18 µM

**Q.** What about the TGI [45] of the same compound?
**A.** 33.6 µM

**Q.** And the GI50 [46]?
**A.** 15.6 µM

**Q.** And the TGI [46]?
**A.** 30 µM

**Q.** What about the GI50 [47] of the same compound?
**A.** 14.2 µM

**Q.** What about the TGI [47] of the same compound?
**A.** > 69.8 µM

**Q.** What about the GI50 [48] of the same compound?
**A.** 17.6 µM

**Q.** And the TGI [48]?
**A.** 55 µM

**Q.** What about the GI50 [49] of the same compound?
**A.** 20 µM

**Q.** And the TGI [49]?
**A.** 51 µM

**Q.** And the GI50 [50]?
**A.** 17.4 µM

**Q.** What about the TGI [50] of the same compound?
**A.** 50.6 µM

**Q.** And the GI50 [51]?
**A.** 14.2 µM

**Q.** And the TGI [51]?
**A.** 27.6 µM

**Q.** What about the GI50 [52] of the same compound?
**A.** 18.7 µM

**Q.** And the TGI [52]?
**A.** 36.5 µM

**Q.** And the GI50 [53]?
**A.** 7.05 µM

**Q.** What about the TGI [53] of the same compound?
**A.** > 77.2 µM

**Q.** What about the GI50 [54] of the same compound?
**A.** 5.89 µM

**Q.** And the TGI [54]?
**A.** 27.3 µM

**Q.** And the GI50 [55]?
**A.** 19.4 µM

**Q.** And the TGI [55]?
**A.** 40.7 µM

**Q.** And the GI50 [56]?
**A.** 17.8 µM

**Q.** And the TGI [56]?
**A.** 35.3 µM

**Q.** And the GI50 [57]?
**A.** 16.7 µM

**Q.** And the TGI [57]?
**A.** 34 µM

**Q.** And the GI50 [58]?
**A.** 12.1 µM

**Q.** And the TGI [58]?
**A.** > 80.8 µM
